This note sets out measurements from patent publication US20210386738A1, “COMBINATION OF PRMT5 INHIBITORS AND BCL-2 INHIBITORS” (GLAXOSMITHKLINE INTELLECTUAL PROPERTY DEVELOPMENT LIMITED, priority 2018, published 2021).

Structures are written as SMILES.

In the experiment the test system is lymphoma cell line U-2932. In words: Standard 6-day growth-death assay, U-2932. It is filed as cell-based. The following applies: single agent or fixed 1:1 combination; for EC50 / IC50: Homo sapiens, U2932, 144 h; for EC50: average of n=2, read-out: dEC50; for IC50: average of n=2, read-out: gIC50; for Ymin-T0 / gIC100: average of n=2. The protocol:
The majority cell lines were obtained from GSK BioCat group, American Type Culture Collection (ATCC), or the Deutsche Sammlung von Mikroorganismen and Zellbulturen (DSMZ). All cell lines were maintained in growth medium in T75 cm^2 flasks, incubated at 37° C. with 5% CO2 and split every 3 to 4 days. Growth media conditions and cell line information are detailed in Table 1. Cells were counted using the Vi-Cell Analyzer (Beckman Coulter ViCell) to obtain viable cell counts.
Optimal cell seeding density was determined for all cell lines by monitoring proliferation over a range of seeding densities in 384-well format and identifying the seeding density at which cells grew logarithmically throughout six days. 50 uL of cells per well were plated in 384-well plates at the optimal seeding density in preferred supplemented culture media. Three plates were prepared per cell line and incubated overnight at 37° C. in 5% CO2.
In these studies, lymphoma cell lines were treated with PRMT5 inhibitor, compound A and BCL-2 targeted inhibitor, ABT-199 single agent or in combination using a fixed 1:1 ratio of each inhibitor over a 20-point titration. For compound A single and fixed 1:1 ratio combination with ABT-199 cell proliferation assay, cells were treated in duplicate with a 20-point, two-fold dilution series of Compound A, ABT-199 (≥14 μM top dose) single or combo treatment, and ≤0.15% DMSO final concentration. Plates were incubated for six days at the conditions described above. Cell growth was measured using CellTiter-Glo (Promega) and luminescence signal was detected with a BioTek Synergy Neo microplate reader. A plate of untreated cells was read at the time of compound/biologic addition to determine the T0 value representing the starting number of cells. Data were fit with a four-parameter equation to generate a concentration response curve using Assay Client software.
Results were background corrected by subtraction of values from wells containing no cells, expressed as a percentage of the T0 value (value at time=0), and plotted against compound concentration. The T0 value was normalized to 100% and represents the number of cells present at the time of compound addition. The cellular response was determined for each compound using a 4- or 6-parameter curve fit of cell viability against concentration using Assay Client software. Growth IC50 (gIC50) values correspond to the concentration intersecting the mid-point of the growth window (between DMSO and T0 values). Growth IC100 (gIC100) values correspond to the concentration at which 100% growth inhibition is achieved, based on the growth window. The Ymin−T0 value, a measure of net population cell growth or death, is calculated by subtracting the T0 value (100%) from the Ymin value (%) that is determined from the fit of the concentration response curve. Death EC50 (dEC50) values correspond to the concentration at which 50% net cell death is observed.
Individual curves were quality checked for three criteria: outlier data points, cell growth (population doubling ≥1.5), and proper curve fitting. […] Individual curves were QC checked for outlier data points, cell growth (population doubling ≥1.5), and proper curve fitting. Obvious outlier data points were omitted only as needed to ensure proper curve fit.
For fixed ratio screening, combination activity was assessed by the fold change in gIC50 compared to the 2 single agent curves by dividing the compound ratio as necessary. Combinations showing >3-fold and >5-fold change from single agent are described as below: • Fold changes ≥5 are considered to represent strong synergy. • Fold changes between 3.0 and 4.9 are considered to represent weak synergy. • Fold changes <3 are considered to represent no synergy.

For `CC1(C)CCC(CN2CCN(c3ccc(C(=O)NS(=O)(=O)c4ccc(NCC5CCOCC5)c([N+](=O)[O-])c4)c(Oc4cnc5[nH]ccc5c4)c3)CC2)=C(c2ccc(Cl)cc2)C1` [ABT-199, venetoclax, reference compound], the EC50 came to 3070 nM, the IC50 was 113 nM, the Ymin-T0 is recorded as −92% and the gIC100 worked out at 1366 nM.

In the case of `O=C(NC[C@H](O)CN1CCc2ccccc2C1)c1ccnc(NC2CCC2)c1` [Compound A], the EC50 was found to be 3070 nM, the IC50 came to 281 nM, the Ymin-T0 is −88% and the gIC100 is on record as 1542 nM.
